According to US20020103187A1, “Compositions and methods for treating superficial fungal infections” (priority 1999, published 2002):
Values after ≈ are worked out from the molar mass of the structure shown.

Tests used:
[1] = Stability in the solid state; assay type: physicochemical; details: stored at ambient conditions
C. albicans (Wilton) = test: Sensitivity of fungi to taurolidine, solid medium; assay type: cell-based; details: Candida albicans
[2] = systemic doses exceeding 40 g/day and cumulative doses up to and exceeding 300 g; cited from earlier work
Trichophyton rubrum = test: Sensitivity of fungi to taurolidine, liquid medium; assay type: cell-based
Epidermophyton floccosum = test: Sensitivity of fungi to taurolidine, solid medium; assay type: cell-based
C. albicans (Jones) [3] = test: Sensitivity of fungi to taurolidine, solid medium; assay type: cell-based; details: Candida albicans
[4] = tested on: Aspergillus fumigatus III; test: Sensitivity of fungi to taurolidine, solid medium; assay type: cell-based
C. albicans (I) = test: Sensitivity of fungi to taurolidine, solid medium; assay type: cell-based; details: Candida albicans
C. tropicalis = test: Sensitivity of fungi to taurolidine, liquid medium; assay type: cell-based; details: Candida tropicalis
C. spp. = test: Sensitivity of fungi to taurolidine, liquid medium; assay type: cell-based
Cryptococcus neoformans = test: Sensitivity of fungi to taurolidine, solid medium; assay type: cell-based
Aspergillus fumigatus = test: Sensitivity of fungi to taurolidine, liquid medium; assay type: cell-based
[5] = pH of saturated solution in deionized water; assay type: physicochemical
Rhizopus spp. = test: Sensitivity of fungi to taurolidine, solid medium; assay type: cell-based
Aspergillus fumigatus I = test: Sensitivity of fungi to taurolidine, solid medium; assay type: cell-based
bacteria = test: Antibacterial activity; assay type: cell-based; details: antifungal activity stated approximately equivalent to it
Mucor spp. (light inoc.) = test: Sensitivity of fungi to taurolidine, liquid medium; assay type: cell-based
[6] = Solubility in aqueous solutions and organic solvents; assay type: physicochemical
[7] = tested on: Trichophyton mentagrophytes; test: Sensitivity of fungi to taurolidine, solid medium; assay type: cell-based
C. albicans (Has. A) [8] = test: Sensitivity of fungi to taurolidine, liquid medium; assay type: cell-based; details: Candida albicans
Mucor spp. (heavy inoc.) = test: Sensitivity of fungi to taurolidine, liquid medium; assay type: cell-based
Candida albicans = test: Antifungal activity; assay type: cell-based; details: the exception in the text summary of Table 1
C. albicans (Jones) [9] = test: Sensitivity of fungi to taurolidine, liquid medium; assay type: cell-based; details: Candida albicans
[10] = Apparent partition coefficient between octanol and water; assay type: physicochemical; details: water buffered at pH 7.2
Mucor spp. (Lane) = test: Sensitivity of fungi to taurolidine, solid medium; assay type: cell-based
Sporotrichum schenkii = test: Sensitivity of fungi to taurolidine, solid medium; assay type: cell-based
C. albicans (Has. A) [11] = test: Sensitivity of fungi to taurolidine, solid medium; assay type: cell-based; details: Candida albicans

With O=S1(=O)CCN(CN2CCS(=O)(=O)NC2)CN1 [Taurolidine, 4,4′-methylenebis(tetrahydro-1,2,4-thiadiazine)1,1,1′,1′,-tetraoxide] as the compound, how does the “stability in the solid state” value [1] read?
The value was “acceptable stability”.

What about the MIC (C. albicans (Wilton)) of the same compound?
Its MIC is > 5000 µg/mL.

What about the safety and tolerability [2] of the same compound?
The safety and tolerability was “safe and well tolerated”.

What about the MIC (Trichophyton rubrum) of the same compound?
Its MIC is 300 µg/mL (≈ 1050 µM).

What about the MIC (Epidermophyton floccosum) of the same compound?
Its MIC is < 300 µg/mL.

And the MIC (C. albicans (Jones) [3])?
The MIC was > 5000 µg/mL.

What about the MIC [4] of the same compound?
The MIC was 625 µg/mL (≈ 2200 µM).

And the MIC (C. albicans (I))?
Its MIC is > 5000 µg/mL.

And the MIC (C. tropicalis)?
The MIC was 300 µg/mL (≈ 1050 µM).

What about the MIC (C. spp.) of the same compound?
Its MIC is 625 µg/mL (≈ 2200 µM).

What about the MIC (Cryptococcus neoformans) of the same compound?
Its MIC is < 300 µg/mL.

What about the MIC (Aspergillus fumigatus) of the same compound?
Its MIC is 300 µg/mL (≈ 1050 µM).

And the “pH of a saturated solution” value [5]?
The value was 7.4.

And the MIC (Rhizopus spp.)?
The MIC was 625 µg/mL (≈ 2200 µM).

What about the MIC (Aspergillus fumigatus I) of the same compound?
The MIC was 625 µg/mL (≈ 2200 µM).

What about the antibacterial activity (bacteria) of the same compound?
Its antibacterial activity is 0.3 to 0.6 mg/mL.

What about the MIC (Mucor spp. (light inoc.)) of the same compound?
The MIC was 625 µg/mL (≈ 2200 µM).

What about the solubility ([6]; CHCl3) of the same compound?
Its solubility is “insoluble”.

And the solubility ([6]; Dilute HCl)?
Its solubility is “soluble”.

And the solubility ([6]; Dilute NaOH)?
The solubility was “soluble”.

And the solubility ([6]; EtOH)?
The solubility was “sparingly soluble”.

What about the solubility ([6]; Water, 20° C.) of the same compound?
The solubility was 1% at 20 °C.

And the MIC [7]?
The MIC was < 300 µg/mL.

What about the MIC (C. albicans (Has. A) [8]) of the same compound?
The MIC was 2500 µg/mL (≈ 8790 µM).

What about the MIC (Mucor spp. (heavy inoc.)) of the same compound?
Its MIC is 625 µg/mL (≈ 2200 µM).

And the antifungal activity (Candida albicans)?
Its antifungal activity is > 5 mg/mL.

And the MIC (C. albicans (Jones) [9])?
The MIC was 5000 µg/mL (≈ 17600 µM).

What about the “apparent partition coefficient between octanol and water” value [10] of the same compound?
The value was “approximately 0.13”.

And the MIC (Mucor spp. (Lane))?
Its MIC is 625 µg/mL (≈ 2200 µM).

And the MIC (Sporotrichum schenkii)?
Its MIC is 625 µg/mL (≈ 2200 µM).

And the MIC (C. albicans (Has. A) [11])?
Its MIC is > 5000 µg/mL.
